This passage reports activity, EC50 (potentiation) and NR2C response results from US9737522B2, “NMDA receptor modulators and uses related thereto” (EMORY UNIVERSITY, priority 2012, dated 2017).

What all share (type): cell-based
Experiment [1] addresses recombinant rat GluN1/GluN2A receptors (NR2A) (Rattus norvegicus (Rat), UniProt P35439+Q00959). Briefly: Two-electrode voltage-clamp recordings, Xenopus laevis oocytes, NR2A. The following applies: current in the absence of compound = 100%, 100 μM glutamate plus 30 μM glycine, read-out: NR2A response. The procedure: (§1) Two-electrode voltage-clamp recordings were made from Xenopus laevis oocytes expressing recombinant rat GluN1/GluN2A, GluN1/GluN2B, GluN1/GluN2C, GluN1/GluN2D, GluA1, or GluK2 receptors following injection of 5-10 ng of cRNA synthesized according to manufacturers' protocols (Ambin, mMessage, mMachine). cDNAs used were rat GluN1-1a (GenBank accession numbers U11418 and U08261; hereafter GluN1), GluN2A (D13211), GluN2B (U11419), GluN2C (M91563), GluN2D (L31611), GluA1 (X17184), GluK2 (Z11548). The current under voltage-clamp was recorded during perfusion with recording solution containing (in mM) 90 NaCl, 1.0 KCl, 0.5 BaCl2, 0.005 EDTA, and 10 HEPES at pH 7.4 (23° C.). Glass micropipettes had resistances of 0.3-1.0 MS2 and were filled with 3.0 M KCl. The membrane potential was clamped at −40 mV during the experiment. Recordings were digitized at 10 Hz and analyzed off line. 20 mM stock solutions of test compounds in 100% DMSO were made and diluted to obtain the final concentration; final DMSO content was 0.05-0.5% (vol/vol). Oocytes expressing GluK2 homomeric receptors were first treated with 10 μM concanavalin A (10 minutes). NMDA receptor responses were obtained by challenging oocytes with 100 μM glutamate plus 30 μM glycine; GluA1 and GluK2 receptors responses were recorded during application of 100 μM glutamate. We recorded the response to 5-7 concentrations of test drug co-applied with glutamate and glycine in 5 or more oocytes obtained from two different frogs. […] N is the Hill slope and maximum is the response predicted for saturating concentration of potentiator.
A general note: Two-electrode voltage clamp is typically applied to oocytes expressing channels or transporters.

Experiment [2] addresses recombinant rat GluN1/GluN2C receptors (NR2C) (Rattus norvegicus (Rat), UniProt P35439+Q00961). Briefly: Two-electrode voltage-clamp recordings, Xenopus laevis oocytes, NR2C. The following applies: head prints IC50; method describes EC50 of potentiator. The procedure: as §1
The target of experiment [3] is recombinant rat GluN1/GluN2D receptors (NR2D) (Rattus norvegicus (Rat), UniProt P35439+Q62645). Briefly: Two-electrode voltage-clamp recordings, Xenopus laevis oocytes, NR2D. To be noted: current in the absence of compound = 100%, 100 μM glutamate plus 30 μM glycine, read-out: NR2D response. The method, then:
as §1

For experiment [4], the target named is recombinant rat GluN1/GluN2B receptors (NR2B) (Rattus norvegicus (Rat), UniProt P35439+Q00960). Kind of experiment: Two-electrode voltage-clamp recordings, Xenopus laevis oocytes, NR2B. The following applies: current in the absence of compound = 100%, 100 μM glutamate plus 30 μM glycine, read-out: NR2B response. The procedure: as §1
Sequence of recombinant rat GluN1/GluN2B receptors (NR2B) (Q00960 27-1482, other chains not shown): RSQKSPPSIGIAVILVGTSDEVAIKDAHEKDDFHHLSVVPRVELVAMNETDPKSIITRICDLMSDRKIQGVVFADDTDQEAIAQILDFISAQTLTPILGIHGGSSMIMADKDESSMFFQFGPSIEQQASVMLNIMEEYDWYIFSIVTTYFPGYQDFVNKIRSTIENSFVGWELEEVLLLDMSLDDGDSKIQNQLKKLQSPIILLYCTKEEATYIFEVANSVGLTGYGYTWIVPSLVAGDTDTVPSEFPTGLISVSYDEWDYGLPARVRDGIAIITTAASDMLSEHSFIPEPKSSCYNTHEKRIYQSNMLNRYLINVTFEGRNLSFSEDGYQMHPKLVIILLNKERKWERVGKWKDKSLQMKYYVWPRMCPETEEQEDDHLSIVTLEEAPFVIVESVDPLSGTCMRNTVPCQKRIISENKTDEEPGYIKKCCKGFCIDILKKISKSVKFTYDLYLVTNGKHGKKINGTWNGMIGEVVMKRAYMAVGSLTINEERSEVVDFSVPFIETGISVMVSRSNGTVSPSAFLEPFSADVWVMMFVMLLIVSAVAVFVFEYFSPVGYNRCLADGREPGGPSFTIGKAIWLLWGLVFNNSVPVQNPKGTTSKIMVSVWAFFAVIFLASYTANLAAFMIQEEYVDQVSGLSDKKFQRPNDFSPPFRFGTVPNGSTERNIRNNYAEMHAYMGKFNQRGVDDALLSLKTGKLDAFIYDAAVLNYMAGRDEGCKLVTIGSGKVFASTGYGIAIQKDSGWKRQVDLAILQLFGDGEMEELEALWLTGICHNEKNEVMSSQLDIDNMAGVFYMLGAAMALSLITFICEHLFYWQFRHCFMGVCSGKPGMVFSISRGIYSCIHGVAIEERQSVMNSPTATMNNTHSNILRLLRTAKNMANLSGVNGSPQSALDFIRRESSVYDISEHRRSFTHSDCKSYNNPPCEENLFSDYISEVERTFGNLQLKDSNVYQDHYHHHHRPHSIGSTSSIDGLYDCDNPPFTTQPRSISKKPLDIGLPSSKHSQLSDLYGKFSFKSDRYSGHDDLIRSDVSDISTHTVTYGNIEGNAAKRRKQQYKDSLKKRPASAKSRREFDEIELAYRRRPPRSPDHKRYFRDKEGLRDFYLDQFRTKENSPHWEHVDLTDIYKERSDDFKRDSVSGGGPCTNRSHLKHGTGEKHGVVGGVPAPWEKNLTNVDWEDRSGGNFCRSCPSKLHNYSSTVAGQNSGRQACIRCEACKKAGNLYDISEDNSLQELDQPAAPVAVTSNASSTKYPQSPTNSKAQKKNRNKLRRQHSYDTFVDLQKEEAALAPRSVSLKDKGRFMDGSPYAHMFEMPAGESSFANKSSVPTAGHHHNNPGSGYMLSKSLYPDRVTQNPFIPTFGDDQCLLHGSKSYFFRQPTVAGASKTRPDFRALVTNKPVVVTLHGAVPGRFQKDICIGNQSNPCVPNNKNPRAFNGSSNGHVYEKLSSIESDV
Experiment [5] concerns the target recombinant rat GluN1/GluN2C receptors (NR2C) (Rattus norvegicus (Rat), UniProt Q00961). Kind of experiment: Two-electrode voltage-clamp recordings, Xenopus laevis oocytes, NR2C. The following applies: at 100 uM; current in the absence of compound = 100%; 100 μM glutamate plus 30 μM glycine. The method, then: as §1

Sequence of recombinant rat GluN1/GluN2C receptors (NR2C) (Rattus norvegicus (Rat), UniProt P35439+Q00961) (Q00961 20-1237, other chains not shown): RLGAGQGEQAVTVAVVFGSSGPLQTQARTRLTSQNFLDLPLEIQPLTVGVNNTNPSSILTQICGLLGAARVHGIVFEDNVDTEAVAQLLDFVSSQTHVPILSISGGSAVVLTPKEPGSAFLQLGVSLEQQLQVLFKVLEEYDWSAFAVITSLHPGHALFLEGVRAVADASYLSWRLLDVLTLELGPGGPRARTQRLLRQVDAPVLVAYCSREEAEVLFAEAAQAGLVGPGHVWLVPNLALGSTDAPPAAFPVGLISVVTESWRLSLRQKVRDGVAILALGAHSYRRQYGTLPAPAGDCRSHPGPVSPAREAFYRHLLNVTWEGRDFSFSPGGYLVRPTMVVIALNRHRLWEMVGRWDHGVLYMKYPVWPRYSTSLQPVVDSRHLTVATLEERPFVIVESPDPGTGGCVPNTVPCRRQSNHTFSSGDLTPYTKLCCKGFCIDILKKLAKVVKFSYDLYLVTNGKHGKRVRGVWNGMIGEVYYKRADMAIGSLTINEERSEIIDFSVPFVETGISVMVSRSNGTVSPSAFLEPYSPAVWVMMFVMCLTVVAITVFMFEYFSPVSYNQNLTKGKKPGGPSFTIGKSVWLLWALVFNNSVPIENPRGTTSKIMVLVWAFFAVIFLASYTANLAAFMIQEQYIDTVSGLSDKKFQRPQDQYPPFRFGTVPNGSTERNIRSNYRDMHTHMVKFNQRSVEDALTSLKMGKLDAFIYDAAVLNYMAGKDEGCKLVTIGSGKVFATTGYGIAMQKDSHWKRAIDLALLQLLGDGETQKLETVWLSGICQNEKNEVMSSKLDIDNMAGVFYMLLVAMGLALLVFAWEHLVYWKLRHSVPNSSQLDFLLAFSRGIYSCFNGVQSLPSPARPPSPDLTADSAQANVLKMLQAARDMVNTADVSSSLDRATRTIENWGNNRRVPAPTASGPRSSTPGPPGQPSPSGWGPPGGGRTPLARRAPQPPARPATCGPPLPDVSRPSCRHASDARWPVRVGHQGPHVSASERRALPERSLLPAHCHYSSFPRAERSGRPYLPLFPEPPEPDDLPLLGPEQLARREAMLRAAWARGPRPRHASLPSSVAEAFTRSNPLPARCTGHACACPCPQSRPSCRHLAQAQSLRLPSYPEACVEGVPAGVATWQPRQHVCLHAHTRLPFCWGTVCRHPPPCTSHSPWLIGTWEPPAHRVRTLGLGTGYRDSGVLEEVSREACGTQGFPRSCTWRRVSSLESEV
Sequence of recombinant rat GluN1/GluN2D receptors (NR2D) (Q62645 28-1323, other chains not shown): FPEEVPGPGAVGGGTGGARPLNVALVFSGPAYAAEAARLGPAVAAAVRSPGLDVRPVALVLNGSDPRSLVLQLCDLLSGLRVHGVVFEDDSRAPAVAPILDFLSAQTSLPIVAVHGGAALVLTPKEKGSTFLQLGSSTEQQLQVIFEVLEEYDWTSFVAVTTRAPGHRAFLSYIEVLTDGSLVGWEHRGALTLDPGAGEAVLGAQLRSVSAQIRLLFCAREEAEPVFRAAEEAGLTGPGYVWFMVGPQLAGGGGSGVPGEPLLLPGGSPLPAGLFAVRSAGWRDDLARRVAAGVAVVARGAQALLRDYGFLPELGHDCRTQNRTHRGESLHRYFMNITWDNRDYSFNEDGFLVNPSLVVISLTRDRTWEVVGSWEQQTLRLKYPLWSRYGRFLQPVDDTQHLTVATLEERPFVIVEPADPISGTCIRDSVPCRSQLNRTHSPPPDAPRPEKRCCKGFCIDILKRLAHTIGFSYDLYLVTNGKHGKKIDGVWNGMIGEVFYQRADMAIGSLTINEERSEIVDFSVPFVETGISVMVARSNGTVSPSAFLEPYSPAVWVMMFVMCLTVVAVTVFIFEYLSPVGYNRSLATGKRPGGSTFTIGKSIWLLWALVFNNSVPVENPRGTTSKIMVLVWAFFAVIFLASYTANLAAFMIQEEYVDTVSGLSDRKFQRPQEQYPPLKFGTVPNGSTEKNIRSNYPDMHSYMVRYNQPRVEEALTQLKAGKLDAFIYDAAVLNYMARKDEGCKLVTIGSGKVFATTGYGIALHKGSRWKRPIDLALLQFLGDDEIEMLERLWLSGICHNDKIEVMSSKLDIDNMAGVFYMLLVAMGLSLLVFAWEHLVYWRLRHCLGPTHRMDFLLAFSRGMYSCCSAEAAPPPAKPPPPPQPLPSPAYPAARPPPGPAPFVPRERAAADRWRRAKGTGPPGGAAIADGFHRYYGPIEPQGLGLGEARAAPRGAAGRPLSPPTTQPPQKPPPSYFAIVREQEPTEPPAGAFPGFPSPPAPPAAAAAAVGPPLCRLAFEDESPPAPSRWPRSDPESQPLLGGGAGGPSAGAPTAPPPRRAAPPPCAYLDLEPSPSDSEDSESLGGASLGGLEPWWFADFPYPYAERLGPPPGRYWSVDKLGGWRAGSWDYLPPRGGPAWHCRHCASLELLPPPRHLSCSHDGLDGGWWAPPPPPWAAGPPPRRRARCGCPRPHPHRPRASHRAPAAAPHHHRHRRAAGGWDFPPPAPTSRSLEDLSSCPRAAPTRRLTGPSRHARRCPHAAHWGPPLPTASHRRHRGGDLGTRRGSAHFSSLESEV
Sequence of recombinant rat GluN1/GluN2C receptors (NR2C) (Rattus norvegicus (Rat), UniProt Q00961) (Q00961 20-1237, other chains not shown): as the sequence (Q00961 20-1237, other chains not shown) above

With `COC(=O)c1ccc(C2C(C(=O)c3cccnc3)=C(O)C(=O)N2CCc2c[nH]c3cc(C)ccc23)cc1` (centres unmarked), the activity at 100 µM worked out at 91% in experiment [1], 64% in experiment [3] and 66% in experiment [4]. The EC50 (potentiation) in experiment [2] turned out to be 4 µM.

On to `CCOC(=O)c1ccc(C2C(C(=O)c3cccnc3)=C(O)C(=O)N2CCc2c[nH]c3cc(C)ccc23)cc1` (centres unmarked), for which the values for the activity at 100 µM in experiment [1], in experiment [3] and in experiment [4] were 74%, 69% and 61%, respectively. Moreover, the EC50 (potentiation) in experiment [2] came to 7 µM.

Turning to `CCOC(=O)c1ccc(C2C(C(=O)c3ccncc3)=C(O)C(=O)N2CCc2c[nH]c3cc(C)ccc23)cc1` (centres unmarked), the activity at 100 µM came to 99% in experiment [1], 73% in experiment [3] and 77% in experiment [4]. Also, the EC50 (potentiation) in experiment [2] was 9 µM.

Regarding `COC(=O)c1ccc(C2C(C(=O)c3ccncc3)=C(O)C(=O)N2CCc2c[nH]c3ccccc23)cc1` (centres unmarked), the activity at 100 µM amounted to 78% in experiment [1], 72% in experiment [3] and 72% in experiment [4]. The EC50 (potentiation) in experiment [2] stood at 8 µM.

Turning to `CCOC(=O)c1ccc(C2C(C(C)=O)=C(O)C(=O)N2CCc2c[nH]c3ccccc23)cc1` (centres unmarked), the results for the activity at 100 µM in experiment [1], in experiment [3] and in experiment [4] were 96%, 79% and 75%, respectively. Further, the EC50 (potentiation) in experiment [2] amounted to 15 µM.

In the case of `CCOC(=O)c1ccc(C2C(C(C)=O)=C(O)C(=O)N2CCc2c(C)[nH]c3ccccc23)cc1` (centres unmarked), the activity at 100 µM in experiment [1] was 89%; in experiment [3] it was 73%; in experiment [4], 79%. Also, the EC50 (potentiation) in experiment [2] was found to be 12 µM.

For `COC(=O)c1ccc(C2C(C(C)=O)=C(O)C(=O)N2CCc2c[nH]c3ccccc23)c(OC)c1` (centres unmarked), the activity at 100 µM came to 99% in experiment [1], 99% in experiment [3] and 79% in experiment [4]. Also, the EC50 (potentiation) in experiment [2] was 20 µM.

Regarding `COC(=O)c1ccc(C2C(C(C)=O)=C(O)C(=O)N2CCc2c[nH]c3ccccc23)c(O)c1` (centres unmarked), the activity at 100 µM in experiment [1] amounted to 102%; in experiment [3], 79%; in experiment [4] it was 77%. The EC50 (potentiation) in experiment [2] was found to be 15 µM.

In the case of `COC(=O)c1ccc(C2C(C(=O)c3cccnc3)=C(O)C(=O)N2CCc2c[nH]c3cc(F)ccc23)cc1` (centres unmarked), the activity at 100 µM in experiment [1] amounted to 80%; in experiment [3], 64%; in experiment [4], 37%. Besides, the EC50 (potentiation) in experiment [2] was 14 µM.

Turning to `COC(=O)c1ccc(C2C(C(=O)c3cccnc3)=C(O)C(=O)N2CCc2c[nH]c3cc(Cl)ccc23)cc1` (centres unmarked), the activity at 100 µM in experiment [1] is 83%; in experiment [3], 61%; in experiment [4] it was 43%. The EC50 (potentiation) in experiment [2] was 4 µM.

In the case of `COC(=O)c1ccc(C2C(C(=O)c3ccccc3Cl)=C(O)C(=O)N2CCc2c[nH]c3ccccc23)cc1` (centres unmarked), the figures for the activity at 100 µM in experiment [1], in experiment [3] and in experiment [4] were 68%, 115% and 72%, respectively. Moreover, the EC50 (potentiation) in experiment [2] amounted to 26 µM.

Take `COC(=O)c1ccc(C2C(C(=O)c3cccc(O)c3)=C(O)C(=O)N2CCc2c[nH]c3ccccc23)cc1` (centres unmarked): in experiment [1], the activity at 100 µM amounted to 76%. Further, the EC50 (potentiation) in experiment [2] turned out to be 5 µM.

As for `COC(=O)c1ccc(C2C(C(=O)c3ccncc3)=C(O)C(=O)N2CCc2cccc3ccccc23)cc1` (centres unmarked), the EC50 (potentiation) in experiment [2] was found to be 11 µM.

Consider `O=C(C1=C(O)C(=O)N(CCc2c[nH]c3ccccc23)C1c1cccs1)c1cccnc1` (centres unmarked), for which the figures for the activity at 100 µM in experiment [1], in experiment [3] and in experiment [4] were 43%, 73% and 71%, respectively. Also, the EC50 (potentiation) in experiment [2] turned out to be 12 µM.

As to `COC(=O)c1ccc(C2C(C(=O)c3ccncc3)=C(O)C(=O)N2CCc2c[nH]cn2)cc1` (centres unmarked), the activity at 100 µM in experiment [1] turned out to be 97%; in experiment [3], 90%; in experiment [4], 91%. In experiment [5], the NR2C response was 84% response at 100 uM.

With `COC(=O)c1ccc(C2C(C(=O)c3ccncc3)=C(O)C(=O)N2CCc2ccncc2)cc1` (centres unmarked), the activity at 100 µM in experiment [1] is 103%; in experiment [3], 95%; in experiment [4], 94%. In addition, in experiment [5], the NR2C response stood at 97% response at 100 uM.
